Assay results: patent US12077503B2, “Substituted cyclic amides and their use as herbicides” (FMC CORPORATION, priority 2015, dated 2024)

Experiments:
Format in all cases: in vivo
Kochia (Kochia scoparia) [1] = assay: Test A preemergence; settings: Preemergence; for Plant response rating, Kochia: 125 g ai/ha, visual injury after approximately 10 d, 0 to 100 scale where 0 is no effect and 100 is complete control; for Kochia plant response rating (0 to 100 scale, 0 is no effect, 100 is complete control): 500 g ai/ha, visual injury approx. 10 d
In short: (§1)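 Ratings of 0 (no effect) to 100 (complete control) come from visual comparison with untreated controls roughly 10 d after treatment. Test chemicals, formulated in a non-phytotoxic solvent mixture with surfactant, were applied either as a preemergence directed soil spray on seeded soil or postemergence to one- to two-leaf plants 2 to 10 cm tall.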

[2] = tested on: barnyardgrass (Echinochloa crus-galli); assay: Test A preemergence; settings: Preemergence; for Plant response rating, Barnyardgrass: 125 g ai/ha, visual injury after approximately 10 d, 0 to 100 scale where 0 is no effect and 100 is complete control; for Barnyardgrass plant response rating (0 to 100 scale, 0 is no effect, 100 is complete control): 500 g ai/ha, visual injury approx. 10 d
In short: as §1

[3] = tested on: giant foxtail (Setaria faberii); assay: Test A preemergence; settings: Preemergence; for Plant response rating, Foxtail, Giant: 125 g ai/ha, visual injury after approximately 10 d, 0 to 100 scale where 0 is no effect and 100 is complete control; for Foxtail, Giant plant response rating (0 to 100 scale, 0 is no effect, 100 is complete control): 500 g ai/ha, visual injury approx. 10 d
In short: as §1

[4] = tested on: pigweed (Amaranthus retroflexus); assay: Test A preemergence; settings: Preemergence; for Plant response rating, Pigweed: 125 g ai/ha, visual injury after approximately 10 d, 0 to 100 scale where 0 is no effect and 100 is complete control; for Pigweed plant response rating (0 to 100 scale, 0 is no effect, 100 is complete control): 500 g ai/ha, visual injury approx. 10 d
[5] = tested on: ragweed (common ragweed, Ambrosia elatior); assay: Test A preemergence; settings: Preemergence; for Plant response rating, Ragweed: 125 g ai/ha, visual injury after approximately 10 d, 0 to 100 scale where 0 is no effect and 100 is complete control; for Ragweed plant response rating (0 to 100 scale, 0 is no effect, 100 is complete control): 500 g ai/ha, visual injury approx. 10 d
In short: as §1

[6] = tested on: ryegrass, Italian (Italian ryegrass, Lolium multiflorum); assay: Test A preemergence; settings: Preemergence; for Plant response rating, Ryegrass, Italian: 125 g ai/ha, visual injury after approximately 10 d, 0 to 100 scale where 0 is no effect and 100 is complete control; for Ryegrass, Italian plant response rating (0 to 100 scale, 0 is no effect, 100 is complete control): 500 g ai/ha, visual injury approx. 10 d
In short: as §1

[7] = tested on: Galium (catchweed bedstraw, Galium aparine); assay: Test A postemergence
In short: as §1

Kochia (Kochia scoparia) [8] = assay: Test A postemergence
In short: as §1

[9] = tested on: barnyardgrass (Echinochloa crus-galli); assay: Test A postemergence
In short: as §1

[10] = tested on: blackgrass (Alopecurus myosuroides); assay: Test A postemergence
In short: as §1

corn (Zea mays) = assay: Test A postemergence
In short: as §1

[11] = tested on: giant foxtail (Setaria faberii); assay: Test A postemergence
In short: as §1

[12] = tested on: pigweed (Amaranthus retroflexus); assay: Test A postemergence
In short: as §1

[13] = tested on: ragweed (common ragweed, Ambrosia elatior); assay: Test A postemergence
In short: as §1

[14] = tested on: ryegrass, Italian (Italian ryegrass, Lolium multiflorum); assay: Test A postemergence
In short: as §1

[15] = tested on: wheat (Triticum aestivum); assay: Test A postemergence
In short: as §1

[16] = tested on: barnyardgrass (Echinochloa crus-galli); assay: Test B flooded paddy test; settings: Flood, 250 g ai/ha; 0 to 100 scale where 0 is no effect and 100 is complete control; 13 to 15 d
In short: (§2)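 Visual ratings (0 none to 100 complete control) are relative to untreated plants, taken 13–15 d after treatment in a greenhouse. Test material went straight into floodwater standing 3 cm above the soil, kept constant, on plants at the 2-leaf stage.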

[17] = tested on: ducksalad (Heteranthera limosa); assay: Test B flooded paddy test; settings: Flood, 250 g ai/ha; 0 to 100 scale where 0 is no effect and 100 is complete control; 13 to 15 d
In short: as §2

rice (Oryra sativa) = assay: Test B flooded paddy test; settings: Flood, 250 g ai/ha; 0 to 100 scale where 0 is no effect and 100 is complete control; 13 to 15 d
In short: as §2

[18] = tested on: sedge, umbrella (small-flower umbrella sedge, Cyperus difformis); assay: Test B flooded paddy test; settings: Flood, 250 g ai/ha; 0 to 100 scale where 0 is no effect and 100 is complete control; 13 to 15 d
In short: as §2

[19] = 125 g ai/ha, postemergence, visual rating after approx. 10 d, 0 to 100 scale (0 no effect, 100 complete control)
[20] = Postemergence, 500 g ai/ha, 0 to 100 scale where 0 is no effect and 100 is complete control

O=C1NCC(c2cc(Cl)sc2Cl)C1C(=O)Nc1cccc(F)c1F (stereo not drawn) [Compound 601]
70: Plant response rating, Foxtail, Giant [3] | Plant response rating, Barnyardgrass [9, 20]
60: Plant response rating, Barnyardgrass [2]
80: Barnyardgrass plant response rating (0 to 100 scale, 0 is no effect, 100 is complete control) [2] | Foxtail, Giant plant response rating (0 to 100 scale, 0 is no effect, 100 is complete control) [3]
0: Plant response rating, Kochia (Kochia (Kochia scoparia) [1]) | Kochia plant response rating (0 to 100 scale, 0 is no effect, 100 is complete control) (Kochia (Kochia scoparia) [1]) | Plant response rating, Pigweed [4] | Pigweed plant response rating (0 to 100 scale, 0 is no effect, 100 is complete control) [4] | Plant response rating, Ragweed [5] | Ragweed plant response rating (0 to 100 scale, 0 is no effect, 100 is complete control) [5] | Plant response rating, Ryegrass, Italian [6] | Ryegrass, Italian plant response rating (0 to 100 scale, 0 is no effect, 100 is complete control) [6] | Plant response rating, Galium [7, 19] | Plant response rating, Galium [7, 20] | Plant response rating, Kochia (Kochia (Kochia scoparia) [8]; [19]) | Plant response rating, Kochia (Kochia (Kochia scoparia) [8]; [20]) | Plant response rating, Blackgrass [10, 19] | Plant response rating, Blackgrass [10, 20] | Plant response rating, Corn (corn (Zea mays); [19]) | Plant response rating, Pigweed [12, 19] | Plant response rating, Pigweed [12, 20] | Plant response rating, Ragweed [13, 19] | Plant response rating, Ragweed [13, 20] | Plant response rating, Ryegrass, Italian [14, 19] | Plant response rating, Ryegrass, Italian [14, 20] | Plant response rating, Wheat [15, 19] | Plant response rating, Rice (rice (Oryra sativa)) | Plant response rating, Sedge, Umbrella [18]
20: Plant response rating, Barnyardgrass [9, 19] | Plant response rating, Corn (corn (Zea mays); [20]) | Plant response rating, Foxtail, Giant [11, 19] | Plant response rating, Wheat [15, 20]
50: Plant response rating, Foxtail, Giant [11, 20]
40: Plant response rating, Barnyardgrass [16]
75: Plant response rating, Ducksalad [17]

O=C1NCC(c2cccc(C(F)(F)F)c2F)C1C(=O)Nc1ccc(F)cc1F (stereo not drawn) [Compound 592]
80: Plant response rating, Barnyardgrass [9, 19] | Plant response rating, Foxtail, Giant [11, 19] | Plant response rating, Ducksalad [17]
55: Plant response rating, Barnyardgrass [16]
70: Plant response rating, Corn (corn (Zea mays); [20]) | Plant response rating, Wheat [15, 20]
60: Plant response rating, Blackgrass [10, 20]
20: Ragweed plant response rating (0 to 100 scale, 0 is no effect, 100 is complete control) [5] | Plant response rating, Galium [7, 19]
0: Plant response rating, Kochia (Kochia (Kochia scoparia) [1]) | Plant response rating, Pigweed [4] | Pigweed plant response rating (0 to 100 scale, 0 is no effect, 100 is complete control) [4] | Plant response rating, Ragweed [5] | Plant response rating, Ryegrass, Italian [6] | Plant response rating, Kochia (Kochia (Kochia scoparia) [8]; [19]) | Plant response rating, Pigweed [12, 19] | Plant response rating, Pigweed [12, 20] | Plant response rating, Ragweed [13, 19] | Plant response rating, Ragweed [13, 20] | Plant response rating, Ryegrass, Italian [14, 19] | Plant response rating, Ryegrass, Italian [14, 20] | Plant response rating, Rice (rice (Oryra sativa)) | Plant response rating, Sedge, Umbrella [18]
90: Plant response rating, Barnyardgrass [2] | Barnyardgrass plant response rating (0 to 100 scale, 0 is no effect, 100 is complete control) [2] | Plant response rating, Foxtail, Giant [3] | Foxtail, Giant plant response rating (0 to 100 scale, 0 is no effect, 100 is complete control) [3] | Plant response rating, Barnyardgrass [9, 20] | Plant response rating, Foxtail, Giant [11, 20]
30: Kochia plant response rating (0 to 100 scale, 0 is no effect, 100 is complete control) (Kochia (Kochia scoparia) [1]) | Plant response rating, Galium [7, 20] | Plant response rating, Blackgrass [10, 19] | Plant response rating, Wheat [15, 19]
50: Ryegrass, Italian plant response rating (0 to 100 scale, 0 is no effect, 100 is complete control) [6] | Plant response rating, Corn (corn (Zea mays); [19])
40: Plant response rating, Kochia (Kochia (Kochia scoparia) [8]; [20])
